# Target: T1, hERG channel (IKr) (Homo sapiens, UniProt Q12809)
# T1 construct: expressed in transfected cells; host or cells: CHO cells
# Test: hERG test (whole cell patch clamp, IKr)
# Format: cell-based
# Settings: CHO cells expressing hERG channel, pH 7.4, 5 μmol/L of test compound, read-out: % inhibition of tail peak current (IKr)
# Text: For the purpose of assessing risk of an electrocardiogram QT interval prolongation of the compound of the present invention, effects of the compound of the present invention on delayed rectifier K+ current (IKr), which plays an important role in the ventricular repolarization process, was studied using CHO cells expressing human ether-a-go-go related gene (hERG) channel.
# After a cell was retained at a membrane potential of −80 mV by whole cell patch clamp method using an automated patch clamp system (QPatch; Sophion Bioscience A/S) and gave a leak potential of −50 mV, IKr induced by depolarization pulse stimulation at +20 mV for 2 seconds, and further, repolarization pulse stimulation at −50 mV for 2 seconds, was recorded. A vehicle, which is the 0.1-0.3% dimethyle sulfoxide solution in extracellular solution (NaCl: 145 mmol/L, KCl: 4 mmol/L, CaCl2: 2 mmol/L, MgCl2: 1 mmol/L, glucose: 10 mmol/L, HEPES (4-(2-hydroxyethyl)-1-piperazineethanesulfonic acid): 10 mmol/L, pH7.4), or the compound of the present invention had been dissolved at an objective concentration in the extracellular solution is applied to the cell at room temperature for 7 minutes or more. From the recording IKr, an absolute value of the tail peak current was measured based on the current value at the resting membrane potential using analysis software (QPatch assay software; Sophion Bioscience A/S). Further, the % inhibition of tail peak current for the compound of the present invention relative to the tail peak current after application of the vehicle is calculated to assess influence of the compound of the present invention on IKr.
# T1 sequence (Q12809 whole entry): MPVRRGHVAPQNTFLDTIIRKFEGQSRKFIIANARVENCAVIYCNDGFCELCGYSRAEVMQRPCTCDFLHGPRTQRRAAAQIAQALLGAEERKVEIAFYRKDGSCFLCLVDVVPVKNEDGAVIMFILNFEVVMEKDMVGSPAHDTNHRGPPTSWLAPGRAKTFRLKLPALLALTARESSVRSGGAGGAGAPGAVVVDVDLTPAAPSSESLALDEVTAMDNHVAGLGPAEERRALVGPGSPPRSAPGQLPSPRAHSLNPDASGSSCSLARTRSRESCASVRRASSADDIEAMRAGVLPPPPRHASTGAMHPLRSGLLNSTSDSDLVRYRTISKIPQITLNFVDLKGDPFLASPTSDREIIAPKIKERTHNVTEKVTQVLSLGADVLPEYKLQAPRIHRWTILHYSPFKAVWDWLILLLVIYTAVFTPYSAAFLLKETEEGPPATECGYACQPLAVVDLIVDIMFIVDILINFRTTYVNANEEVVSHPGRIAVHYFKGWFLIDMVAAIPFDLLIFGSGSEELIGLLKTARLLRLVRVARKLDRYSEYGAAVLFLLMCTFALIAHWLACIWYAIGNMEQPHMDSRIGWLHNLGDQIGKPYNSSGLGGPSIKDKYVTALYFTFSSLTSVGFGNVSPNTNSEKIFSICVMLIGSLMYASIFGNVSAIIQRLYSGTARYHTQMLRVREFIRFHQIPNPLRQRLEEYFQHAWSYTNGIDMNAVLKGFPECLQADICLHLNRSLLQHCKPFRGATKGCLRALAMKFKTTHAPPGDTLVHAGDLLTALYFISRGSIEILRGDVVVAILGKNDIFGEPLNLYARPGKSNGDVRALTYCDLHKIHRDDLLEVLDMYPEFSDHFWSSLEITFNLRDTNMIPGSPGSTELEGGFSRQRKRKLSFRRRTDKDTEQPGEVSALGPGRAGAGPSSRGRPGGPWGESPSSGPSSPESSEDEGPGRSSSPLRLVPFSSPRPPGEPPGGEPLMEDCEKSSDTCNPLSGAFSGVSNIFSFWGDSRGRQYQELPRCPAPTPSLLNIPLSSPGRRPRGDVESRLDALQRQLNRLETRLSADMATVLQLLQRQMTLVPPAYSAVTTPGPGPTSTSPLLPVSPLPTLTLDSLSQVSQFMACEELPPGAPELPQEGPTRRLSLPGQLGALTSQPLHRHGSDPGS
row,Compound,inhibition at 5 μmol/L
1,CCOc1ncc(-c2nn(-c3ccccc3)c(NC(=O)N[C@@H]3C[C@@H](CCOC)N(C)[C@H]3c3ccnc(F)c3)c2C)cn1 [Compound I-93],11.6%
2,CCN1CCC(NC(=O)c2cc(-c3nn(-c4ccccc4)c(NC(=O)N[C@@H]4C[C@@H](CCOC)N(C)[C@H]4c4ccc(F)c(F)c4)c3C)ccn2)CC1 [Compound I-66],22.6%
3,COCCN1C[C@@H](NC(=O)Nc2c(C)c(-c3cnc(CO)nc3)nn2-c2ccccc2)[C@H](c2ccccc2)C1 (racemic) [Compound I-10],34.6%
4,CCN1CCC(NC(=O)c2cc(-c3nn(-c4ccccc4)c(NC(=O)N[C@@H]4C[C@@H](CCOC)C[C@H]4c4ccccc4)c3C)ccn2)CC1 [Compound I-67],16.3%

# Same assay, conditions: CHO cells expressing hERG channel, pH 7.4, 10 μmol/L of test compound, read-out: % inhibition of tail peak current (IKr)
row,Compound,inhibition at 10 μmol/L
1,CCOc1ncc(-c2nn(-c3ccccc3)c(NC(=O)N[C@@H]3C[C@@H](CCOC)N(C)[C@H]3c3ccc(F)c(F)c3)c2C)cn1 [Compound I-174],33.6%
2,CCOc1ncc(-c2nn(-c3ccccc3)c(NC(=O)N[C@@H]3C[C@@H](CCOC)C[C@H]3c3ccc(F)c(F)c3)c2C)cn1 [Compound I-169],21%

# Same assay, conditions: CHO cells expressing hERG channel, pH 7.4, 30 μmol/L of test compound, read-out: % inhibition of tail peak current (IKr)
row,Compound,inhibition at 30 μmol/L
1,COCC[C@@H]1C[C@@H](NC(=O)Nc2c(C)c(-c3cnc(OC)nc3)nn2-c2ccccc2)[C@H](c2ccnc(F)c2)N1C [Compound I-92],19.3%

# Target: T2, human TrkA (Homo sapiens, UniProt P04629)
# T2 construct: purchased Lifetechnologies PV3144
# T2 sequence (P04629 33-796): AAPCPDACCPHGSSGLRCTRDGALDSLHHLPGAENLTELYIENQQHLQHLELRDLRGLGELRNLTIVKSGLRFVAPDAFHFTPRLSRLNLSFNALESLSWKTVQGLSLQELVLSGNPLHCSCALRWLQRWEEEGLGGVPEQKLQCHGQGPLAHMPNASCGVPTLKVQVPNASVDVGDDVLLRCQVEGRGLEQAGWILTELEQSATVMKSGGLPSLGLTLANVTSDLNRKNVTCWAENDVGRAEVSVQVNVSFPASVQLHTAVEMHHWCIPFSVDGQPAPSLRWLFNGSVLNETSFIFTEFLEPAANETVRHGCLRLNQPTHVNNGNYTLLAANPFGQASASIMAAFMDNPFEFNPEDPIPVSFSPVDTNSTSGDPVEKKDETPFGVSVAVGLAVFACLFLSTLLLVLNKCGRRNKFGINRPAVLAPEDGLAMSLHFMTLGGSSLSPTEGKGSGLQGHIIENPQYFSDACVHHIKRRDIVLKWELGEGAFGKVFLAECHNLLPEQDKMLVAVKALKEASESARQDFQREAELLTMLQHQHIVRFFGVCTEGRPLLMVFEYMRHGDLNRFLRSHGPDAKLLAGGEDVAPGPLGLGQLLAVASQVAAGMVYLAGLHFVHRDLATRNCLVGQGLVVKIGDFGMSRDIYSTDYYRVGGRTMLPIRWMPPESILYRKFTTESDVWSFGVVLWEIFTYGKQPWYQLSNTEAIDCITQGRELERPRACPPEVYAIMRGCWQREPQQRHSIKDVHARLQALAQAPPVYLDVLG
# Test: Human TrkA inhibition assay
# Format: biochemical
# Settings: human TrkA phosphorylation inhibition, ATP 500 μmol/L; read-out: IC50_nM
# Summary of the method: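 Human TrkA (1 nmol/L final) preincubated 15 min with compound, then FL-peptide 27 (1.5 μmol/L) and ATP (500 μmol/L) added; 120 min at 37 °C in HEPES/MgCl2/DTT buffer. Mobility-shift measurement of phosphorylated vs non-phosphorylated substrate; IC50 by logistic regression over 3-fold dilution series.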
row,IC50,Compound
1,< 100 nM,COCCN1C[C@@H](NC(=O)Nc2c(C)c(-c3cnc(CO)nc3)nn2-c2ccccc2)[C@H](c2ccccc2)C1 (racemic) [Compound I-10]
2,< 100 nM,COCCN1C[C@@H](NC(=O)Nc2c(C)c(-c3cnn(C)c3)nn2-c2ccccc2)[C@H](c2ccnc(F)c2F)C1 (racemic) [Compound I-162]
3,< 100 nM,COCCN1C[C@@H](NC(=O)Nc2c(C)c(-c3cnc(OCCO)nc3)nn2-c2ccccc2)[C@H](c2ccccc2)C1 (racemic) [Compound I-31]
4,< 100 nM,COCCN1C[C@@H](NC(=O)Nc2c(C)c(-c3ccc(C(=O)NC4CCOCC4)nc3)nn2-c2ccccc2)[C@H](c2ccccc2)C1 (racemic) [Compound I-41]
5,< 100 nM,COCCN1C[C@@H](NC(=O)Nc2c(C)c(-c3cnn(C)c3)nn2-c2ccccc2)[C@H](c2cc(F)nc(F)c2)C1 (racemic) [Compound I-7]
6,< 100 nM,COCCN1C[C@@H](NC(=O)Nc2c(C)c(-c3cnn(C)c3)nn2-c2ccccc2)[C@H](c2cc(F)ncc2F)C1 (racemic) [Compound I-98]
7,< 100 nM,COCCN1C[C@@H](NC(=O)Nc2c(C)c(-c3ccnc(C(=O)N[C@@H]4CCCOC4)c3)nn2-c2ccccc2)[C@H](c2ccccc2)C1 (mixture of isomers) [Compound I-72]
8,< 100 nM,COCCN1C[C@@H](NC(=O)Nc2c(C)c(-c3ccnc(C(=O)NOC)c3)nn2-c2ccccc2)[C@H](c2ccc(F)c(F)c2)C1 [Compound I-156]
9,< 100 nM,COCC[C@@H]1C[C@@H](NC(=O)Nc2c(C)c(-c3ccc4c(cnn4C)c3)nn2-c2ccccc2)[C@H](c2ccc(F)c(F)c2)N1 [Compound I-8]
10,< 100 nM,CCNC(=O)c1cc(-c2nn(-c3ccccc3)c(NC(=O)N[C@@H]3CN(CCOC)C[C@H]3c3ccccc3)c2C)cn(CCOC)c1=O (racemic) [Compound I-133]
11,< 100 nM,COCCN1C[C@@H](NC(=O)Nc2c(C)c(-c3cnc(OC)c(C(=O)NC4CCCCC4)c3)nn2-c2ccccc2)[C@H](c2ccccc2)C1 (racemic) [Compound I-77]
12,< 100 nM,COCCN1C[C@@H](NC(=O)Nc2c(C)c(-c3cncc(N=S(C)(C)=O)c3)nn2-c2ccccc2)[C@H](c2ccccc2)C1 (racemic) [Compound I-106]
13,< 100 nM,COCCN1C[C@@H](NC(=O)Nc2c(C)c(N3CCc4nn(C)cc4C3)nn2-c2ccccc2)[C@H](c2ccccc2)C1 [Compound I-59]
14,< 100 nM,COCC[C@@H]1C[C@@H](NC(=O)Nc2c(C)c(-c3cc(C(=O)NOCc4ccccc4)c(=O)n(C)c3)nn2-c2ccccc2)[C@H](c2ccccc2)C1 [Compound I-119]

# The next lines start with the compound.
row,Compound,IC50
1,CCOc1ncc(-c2nn(-c3ccccc3)c(NC(=O)N[C@@H]3C[C@@H](CCOC)N(C)[C@H]3c3ccnc(F)c3)c2C)cn1 [Compound I-93],< 100 nM
2,CCN1CCC(NC(=O)c2cc(-c3nn(-c4ccccc4)c(NC(=O)N[C@@H]4C[C@@H](CCOC)N(C)[C@H]4c4ccc(F)c(F)c4)c3C)ccn2)CC1 [Compound I-66],< 100 nM
3,CCOc1ncc(-c2nn(-c3ccccc3)c(NC(=O)N[C@@H]3C[C@@H](CCOC)N(C)[C@H]3c3ccc(F)c(F)c3)c2C)cn1 [Compound I-174],< 100 nM
4,CCOc1ncc(-c2nn(-c3ccccc3)c(NC(=O)N[C@@H]3C[C@@H](CCOC)C[C@H]3c3ccc(F)c(F)c3)c2C)cn1 [Compound I-169],< 100 nM
5,CCN1CCC(NC(=O)c2cc(-c3nn(-c4ccccc4)c(NC(=O)N[C@@H]4C[C@@H](CCOC)C[C@H]4c4ccccc4)c3C)ccn2)CC1 [Compound I-67],< 100 nM
6,CCOc1ncc(-c2nn(-c3ccccc3)c(NC(=O)N[C@@H]3CN(CCOC)C[C@H]3c3ccccc3)c2C)cc1C(=O)NC1CCOCC1 (racemic) [Compound I-140],< 100 nM
7,COCCN1C[C@@H](NC(=O)Nc2c(C)c(-c3cnc4c(c3)nnn4C)nn2-c2ccccc2)[C@H](c2ccnc(F)c2)C1 (racemic) [Compound I-105],< 100 nM
8,COCCN1C[C@@H](NC(=O)Nc2c(C)c(-c3cnc4nccnc4c3)nn2-c2ccccc2)[C@H](c2ccccc2)C1 (racemic) [Compound I-135],< 100 nM
9,COCC[C@@H]1C[C@@H](NC(=O)Nc2c(C)c(-c3cc(C(=O)NOC)c(=O)n(C)c3)nn2-c2ccccc2)[C@H](c2ccccc2)C1 [Compound I-153],< 100 nM
10,COCCN1C[C@@H](NC(=O)Nc2c(C)c(-c3ccnc(C(=O)NCC(F)(F)F)c3)nn2-c2ccccc2)[C@H](c2ccccc2)C1 (racemic) [Compound I-48],< 100 nM
11,COCCN1C[C@@H](NC(=O)Nc2c(C)c(-c3cnc4c(c3)nnn4C)nn2-c2ccccc2)[C@H](c2ccccc2)C1 (racemic) [Compound I-37],< 100 nM
12,COCC[C@@H]1C[C@@H](NC(=O)Nc2c(C)c(-c3cnc(OC)nc3)nn2-c2ccccc2)[C@H](c2ccnc(F)c2)C1 [Compound I-165],< 100 nM
13,COCCN1C[C@@H](NC(=O)Nc2c(C)c(-c3cnc4nccn4c3)nn2-c2ccccc2)[C@H](c2ccccc2)C1 (racemic) [Compound I-30],< 100 nM
14,COCCN1C[C@@H](NC(=O)Nc2c(C)c(-c3ccnc(C(=O)NC[C@@H](C)O)c3)nn2-c2ccccc2)[C@H](c2ccccc2)C1 [Compound I-75],< 100 nM
15,COCC[C@@H]1C[C@@H](NC(=O)Nc2c(C)c(-c3cnc4c(cnn4C)c3)nn2-c2ccccc2)[C@H](c2ccnc(F)c2)N1C [Compound I-94],< 100 nM
16,COCCN1C[C@@H](NC(=O)Nc2c(C)c(-c3ccnc(C(=O)N[C@H]4CC[C@@H](O)CC4)c3)nn2-c2ccccc2)[C@H](c2ccccc2)C1 [Compound I-85],< 100 nM
17,COCCN1C[C@@H](NC(=O)Nc2c(C)c(-c3cnc(OC)c(C(=O)NC(=O)N(C)C)c3)nn2-c2ccccc2)[C@H](c2ccccc2)C1 (racemic) [Compound I-158],< 100 nM

# Same assay, conditions: human TrkA phosphorylation inhibition, ATP 500 μmol/L; read-out: IC50 value
row,IC50,Compound
1,0.74 nM,COCC[C@@H]1C[C@@H](NC(=O)Nc2c(C)c(-c3cnc(OC)nc3)nn2-c2ccccc2)[C@H](c2ccnc(F)c2)N1C [Compound I-92]
2,1 nM,COCCN1C[C@@H](NC(=O)Nc2c(C)c(-c3cnc4c(cnn4C)c3)nn2-c2ccccc2)[C@H](c2ccnc(F)c2)C1 [Compound I-159]
3,6.8 nM,COCCN1C[C@@H](NC(=O)Nc2c(C)c(-c3ccnc(C(=O)NOC)c3)nn2-c2ccccc2)[C@H](c2ccccc2)C1 (racemic) [Compound I-100]
4,0.94 nM,COCC[C@@H]1C[C@@H](NC(=O)Nc2c(C)c(-c3cnc4c(cnn4C)c3)nn2-c2ccccc2)[C@H](c2ccc(F)c(F)c2)N1C [Compound I-172]
